Experimental data from patent US20170233628A1, “ENZYME DES[…] DES[…] PRODUCING SULFUR CONTAINING COMPOUNDS IN DOWNHOLE FLUIDS” (BAKER HUGHES INCORPORATED, priority 2016, published 2017).

Tested on: sulfur producing enzymes
Test: H2S production (colour of sample) by sterile, enzyme-containing SRB supernatant after treatment with inhibitors
Type: biochemical, sulfate-reducing bacteria (SRBs) from produced water sources
Conditions: sterile enzyme-containing supernatant in LB, 3 months at 37° C.
Description: Now turning to the Figures, FIG. 1 illustrates the ability of sterile solutions to produce hydrogen sulfide (H2S). Six samples were formed with the following procedure. Each sample includes 100 mL of lysogeny broth (LB) ([…] Tryptone, 5 mg/ml yeast extract, 5 mg/mL NaCl, pH 7.5). Sample A is the blank sample, i.e. no sulfur metabolizing enzymes were added. Samples B-D include 0.5 mL of cultured sulfate-reducing bacteria (SRBs) from produced water sources. […]
Sample E includes 0.5 mL of supernatant after the same cultured SRBs were additionally sonicated. A QSonic sonicator sonicated the cultured SRBs for one minute cycles at 70% amplitude. The cell debris was removed via centrifugation at 3000 RPM for 25 minutes. 0.5 mL of the remaining supernatant was added to Sample E.
The remaining supernatant was filtered through a […] pore size PVDF membrane. […]
Samples 1-9 included the same components as that of Sample F from Example 1, i.e. 0.5 mL of the sterile, enzyme-containing, supernatant. […] Samples 1-9 were incubated at 37° C. and monitored periodically. […]

Row | SMILES | inactivation of sulfur producing enzymes
1 | NC(=O)CI [Iodoacetamide, iodoacetamide] | effective in permanently inactivating enzymes
2 | CCCCCCCCCCCCOS(=O)(=O)[O-].[Na+] [SDS, sodium dodecyl sulfate] | effective in permanently inactivating enzymes
